The values that follow come from patent EP4567040A1, “CRYSTAL FORM OF FUSED TRICYCLIC DERIVATIVE AND PREPARATION METHOD” (Jiangsu Hengrui Pharmaceuticals Co., Ltd., priority 2022, dated 2024).

Data set [1] has as its system DPX2 (HepG2 cells were stably transfected with the human PXR gene and the fluorescent reporter gene) cells. Nature of the data set: Cell viability in the PXR induction assay (CellTiter-Fluor). Format: cell-based. As for the experimental part: • 1. The potential of the test compounds to induce the activity of drug metabolism enzymes through in vitro activation of PXR was evaluated. […] […] Experimental procedures • 3.1. Preparation for plating • 1) 50 mL of FBS was added to 450 mL of cell culture medium. • 2) DPX2 cells were cultured in a T-75 culture flask in a 37 °C, 5% CO2 incubator with 95% relative humidity. When covering 80-90% of the bottom of the culture flask, the cells were digested. • 3) The top layer of cells cultured in the T-75 culture flask was washed with 8 mL of PBS, and the PBS was pipetted off. The cells were digested with 3 mL of pancreatin at 37 °C for about 5 min or until they were floating in the pancreatin. 10 mL (excessive) of a serum-containing culture medium was added to neutralize the pancreatin. • 4) The cell suspension was transferred to a conical-bottomed centrifuge tube and centrifuged at 120 g for 10 min. The cells were suspended in the plating culture medium, and the concentration was adjusted to 4 × 10^5 cells/mL. The diluted cells were added to a 96-well cell culture plate at 100 µL/well. The culture plate was placed in an incubator and incubated at 37 °C for 24 h before the PXR activation experiment. • 3.2. […] […] The final concentration of DMSO was 0.1%. 1 µL of DMSO was added to a well containing 1 mL of pre-incubated culture medium as a solvent control. • 2) The cell culture plate was taken out of the incubator, and the culture medium was discarded. The test compounds and the positive compound were added to appropriate wells at 100 µL/well, and each group was tested in duplicate. The cell plate was placed in an incubator and incubated for 24 h. • 3.3. Quantification of PXR activation • 1) After […] of compound treatment, PXR activation was quantified for the culture. • 2) The CellTiter-Fluor™ cell viability assay kit and the One-Glo Luciferase reagent were equilibrated to room temperature. The GF-AFC (10 µL) substrate was added to Assay Buffer (10 mL) to form a 2× reagent, and the reagent was then diluted to 1× with 10 mL of PBS; the ONE-Glo substrate was added to the ONE-Glo Luciferase Assay buffer. • 3) The cell culture plate was taken out of the incubator, and the culture medium in each well was discarded. The plate was washed twice with PBS. The 1× CellTiter-Fluor™ reagent was added to a sterilized reagent reservoir, and 50 µL was transferred to each well using a multi-channel pipette. The plate was incubated at 37 °C for 30 min. • 4) The 96-well cell plate was taken out of the incubator, and the fluorescence in each well was measured using a microplate reader put in the fluorescence mode at an excitation wavelength of 400 nm and an emission wavelength of 505 nm. • 5) The ONE-Glo reagent was poured into a reagent reservoir, and then 50 µL was transferred to each well using a multi-channel pipette. The reagent was gently and well mixed, and the mixture was incubated and well mixed at room temperature for 5 min. After the incubation, the luminescence in each well was measured using a luminometer.
The calculation formula for cell viability: Percent cell viability (%) = I(sample)/(I(vehicle) × 100 [formula]
I(sample) represents the fluorescence intensity of the sample, and I(vehicle) represents the fluorescence intensity of 0.1% DMSO to cells.

Data set [2] in a line: Influencing factor stability study of crystal forms. Format: physicochemical. The following applies: 30-day influencing factor experiments; for chemical stability: high temperature and high humidity conditions. The method, then: Example 50. Influencing Factor Stability Study of Crystal Forms Free-state samples were spread out, left to stand in open flasks, and subjected to 30-day stability tests under light exposure (4500 Lux), high temperature (40 °C and 60 °C), and high humidity (RH 75% and RH 92.5%) conditions.

A short description of data set [3]: Long-term/accelerated stability of crystal forms. Format: physicochemical. Conditions: for Purity%: sealed in aluminum foil bag. As for the experimental part:
Free-state samples were sealed in aluminum foil bags and left to stand under 25 °C/60% RH and 40 °C/75% RH conditions to test their stability.

A short description of data set [4]: Hygroscopicity study of free-state crystal forms (DVS). The following applies: for 0.0% RH-80.0% RH (hygroscopicity, mass change): DVS, 25 °C; for Crystal form: crystal form after DVS test. Format: physicochemical. The method, then:
Testing was performed using Surface Measurement Systems advantage 2, at 25 °C, with the humidity changing from 50% -95%-0%-95%-50%RH, in steps of 10%. The criterion was that each gradient mass change dM/dT is less than 0.002%, TMAX 360 min, two cycles.
Surface Measurement Systems intrinsic DVS was adopted. At 25 °C, the crystal forms were tested in a humidity range of 0%-95%, with increments of 10%. The criterion was that each gradient mass change dM/dT is less than 0.002%, TMAX 360 min, two cycles.

With `CO[C@H]1/C=C/O[C@@]2(C)Oc3c(C)c(O)c4c(O)c(c(/C=N/N5CCN(C)CC5)c(O)c4c3C2=O)NC(=O)/C(C)=C\C=C\[C@H](C)[C@H](O)[C@@H](C)[C@@H](O)[C@@H](C)[C@H](OC(C)=O)[C@@H]1C` [Rifampicin, reference compound], the “Cell viability (%)” value in data set [1] (compound concentration 0.0195 µM) came out at 103.39%; in data set [1] (compound concentration 20.0 µM), 93.07%.
Regarding `C[C@H]1COc2c(-c3nc(N[C@@H]4CCOC[C@H]4O)ncc3Cl)cc(F)c3nc(C(C)(C)O)n1c23` [Crystal form G, (3S,4R)-4-((5-chloro-4-((S)-8-fluoro-2-(2-hydroxypropan-2-yl)-3-methyl-3,4-dihydro-5-oxa-1,2a-diazaacenaphthylen-6-yl)pyrimidin-2-yl)amino)tetrahydro-2H-pyran-3-ol], the physical stability result in data set [2] is “good physical stability”. Also, the chemical stability entry in data set [2] is given as “good chemical stability”. For the same compound, the Purity% is 99.9% in data set [3] (25 °C/60% RH, 1 month); 99.9% in data set [3] (25 °C/60% RH, 2 months); 99.9% in data set [3] (25 °C/60% RH, 3 months); 99.9% in data set [3] (25 °C/60% RH, 6 months); 99.9% in data set [3] (25 °C/60% RH, 14 days); 99.9% in data set [3] (25 °C/60% RH, Initial). Further, the Purity% in data set [3] (40 °C/75% RH, 1 month) was 99.9%; in data set [3] (40 °C/75% RH, 2 months), 99.9%; in data set [3] (40 °C/75% RH, 3 months), 99.9%; in data set [3] (40 °C/75% RH, 6 months) it was 99.9%; in data set [3] (40 °C/75% RH, 14 days), 99.9%; in data set [3] (40 °C/75% RH, Initial) it was 99.9%. Besides, the Crystal form entry in data set [3] (25 °C/60% RH, after standing up to 6 months) is reported as “No change”; in data set [3] (40 °C/75% RH, after standing up to 6 months), “No change”; in data set [4] it was “No change”. The “physical stability and chemical stability” value in data set [3] (long-term accelerated conditions for 6 months) was “good physical stability and chemical stability”. Further, the “0.0% RH-80.0% RH (hygroscopicity, mass change)” value in data set [4] came to 2.46%.
Turning to `C[C@H]1COc2c(-c3nc(N[C@@H]4CCOC[C@H]4O)ncc3Cl)cc(F)c3nc(C(C)(C)O)n1c23` [Crystal form H, (3S,4R)-4-((5-chloro-4-((S)-8-fluoro-2-(2-hydroxypropan-2-yl)-3-methyl-3,4-dihydro-5-oxa-1,2a-diazaacenaphthylen-6-yl)pyrimidin-2-yl)amino)tetrahydro-2H-pyran-3-ol], in data set [2], the physical stability result is “good physical stability”. Besides, in data set [2], the chemical stability result is “good chemical stability”. In addition, the Purity% in data set [3] (25 °C/60% RH, 1 month) was found to be 99.95%; in data set [3] (25 °C/60% RH, 2 months) it was 99.95%; in data set [3] (25 °C/60% RH, 3 months) it was 99.95%; in data set [3] (25 °C/60% RH, 14 days), 99.95%; in data set [3] (25 °C/60% RH, Initial), 99.95%; in data set [3] (40 °C/75% RH, 1 month) it was 99.95%. In addition, the Purity% is given as 99.95% in data set [3] (40 °C/75% RH, 2 months); 99.95% in data set [3] (40 °C/75% RH, 3 months); 99.95% in data set [3] (40 °C/75% RH, 14 days); 99.95% in data set [3] (40 °C/75% RH, Initial). The Crystal form entry in data set [3] (25 °C/60% RH, after standing up to 3 months) is “No change”; in data set [3] (40 °C/75% RH, after standing up to 3 months), “No change”; in data set [4] it was “No change”. Further, the “physical stability and chemical stability” value in data set [3] (long-term accelerated conditions for 3 months) is “good physical stability and chemical stability”. Moreover, in data set [4], the “0.0% RH-80.0% RH (hygroscopicity, mass change)” value amounted to 0.28%.
